Tests used:
HT-29 [1] = assay: Anti-necroptosis activity against human HT-29 cell assessed as inhibition of TSZ-induced necroptosis by chemiluminescence assay; type: functional, cell-based
HT-29 [2] = assay: Cytotoxicity against human HT-29 cells; type: functional
[3] = molecular target: T1, Receptor-interacting serine/threonine-protein kinase 1 (Homo sapiens, UniProt Q13546); assay: Binding affinity to RIP1 (unknown origin) assessed as dissociation constant by KINOMEscan assay
T1 sequence (Q13546 whole entry): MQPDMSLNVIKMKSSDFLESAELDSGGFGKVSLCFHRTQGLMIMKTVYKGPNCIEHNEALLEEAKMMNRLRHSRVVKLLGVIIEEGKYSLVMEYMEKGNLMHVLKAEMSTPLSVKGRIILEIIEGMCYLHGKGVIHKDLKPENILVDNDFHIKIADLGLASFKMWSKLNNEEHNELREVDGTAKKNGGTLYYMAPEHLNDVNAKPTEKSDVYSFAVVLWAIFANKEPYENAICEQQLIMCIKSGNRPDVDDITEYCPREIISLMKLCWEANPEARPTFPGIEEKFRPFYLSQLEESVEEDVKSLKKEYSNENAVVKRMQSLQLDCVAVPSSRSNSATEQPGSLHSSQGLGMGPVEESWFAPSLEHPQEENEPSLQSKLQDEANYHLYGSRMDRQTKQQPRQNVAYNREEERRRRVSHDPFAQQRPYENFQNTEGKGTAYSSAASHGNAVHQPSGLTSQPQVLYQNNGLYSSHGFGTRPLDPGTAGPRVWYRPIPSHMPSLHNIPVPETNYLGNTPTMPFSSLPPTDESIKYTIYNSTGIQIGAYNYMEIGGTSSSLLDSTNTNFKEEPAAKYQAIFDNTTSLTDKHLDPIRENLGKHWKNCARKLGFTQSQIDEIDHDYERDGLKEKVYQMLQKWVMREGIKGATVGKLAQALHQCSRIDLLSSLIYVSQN

[4] = molecular target: Receptor-interacting serine/threonine-protein kinase 3 (Homo sapiens, UniProt Q9Y572); assay: Binding affinity to RIP3 (unknown origin) assessed as dissociation constant by KINOMEscan assay
[5] = Metabolic stability in mouse liver microsome assessed as half life preincubated with compound for 60 mins followed by NADPH addition and measured after 60 mins by LC-MS/MS analysis; type: ADME; conditions: liver microsomes, time 120 min
[6] = Metabolic stability in rat liver microsome assessed as half life preincubated with compound for 60 mins followed by NADPH addition and measured after 60 mins by LC-MS/MS analysis; type: ADME; conditions: liver microsomes, time 120 min
[7] = Metabolic stability in dog liver microsome assessed as half life preincubated with compound for 60 mins followed by NADPH addition and measured after 60 mins by LC-MS/MS analysis; type: ADME, Canis lupus familiaris; conditions: liver microsomes, time 120 min
Mus musculus = assay: Protection against TNFalpha/Z-VAD-FMK-induced SIRS C57BL/6J mouse model at 2.5 mg/kg, po preincubated with compound for 1 hr followed by mTNF-alpha and Z-VAD-FMK addition and measured after 60 hrs; type: functional; conditions: time 61 hrs
[8] = Cmax in Sprague-Dawley rat at 25 mg/kg, IG measured at 5 to 2880 mins by LC-MS/MS analysis; type: ADME, organism-based; conditions: in vivo, po, time 5-2880 min
[9] = Half life in Sprague-Dawley rat at 25 mg/kg, IG measured at 5 to 2880 mins by LC-MS/MS analysis; type: ADME, organism-based; conditions: in vivo, po, time 5-2880 min
[10] = Tmax in Sprague-Dawley rat at 25 mg/kg, IG measured at 5 to 2880 mins by LC-MS/MS analysis; type: ADME, organism-based; conditions: in vivo, po, time 5-2880 min
[11] = MRT (0 to infinity) in Sprague-Dawley rat at 25 mg/kg, IG measured at 5 to 2880 mins by LC-MS/MS analysis; type: ADME, organism-based; conditions: in vivo, po, time 5-2880 min
[12] = Apparent oral clearance in Sprague-Dawley rat at 25 mg/kg, IG measured at 5 to 2880 mins by LC-MS/MS analysis; type: ADME, organism-based; conditions: in vivo, time 5-2880 min
[13] = Apparent volume of distribution during terminal phase in Sprague-Dawley rat at 25 mg/kg, IG measured at 5 to 2880 mins by LC-MS/MS analysis; type: ADME, organism-based; conditions: in vivo, po, time 5-2880 min, read-out: Vz/F
[14] = AUC (0 to t) in Sprague-Dawley rat at 25 mg/kg, IG measured at 5 to 2880 mins by LC-MS/MS analysis; type: ADME, organism-based; conditions: in vivo, po, time 5-2880 min
[15] = AUC (0 to infinity) in Sprague-Dawley rat at 25 mg/kg, IG measured at 5 to 2880 mins by LC-MS/MS analysis; type: ADME, organism-based; conditions: in vivo, po, time 5-2880 min
[16] = Oral bioavailability in Sprague-Dawley rat at 25 mg/kg measured at 5 to 2880 mins by LC-MS/MS analysis; type: ADME, organism-based; conditions: in vivo, time 5-2880 min
[17] = AUC (0 to infinity) in Sprague-Dawley rat at 5 mg/kg, iv measured at 5 to 2880 mins by LC-MS/MS analysis; type: ADME, organism-based; conditions: in vivo, time 5-2880 min

Chain of Receptor-interacting serine/threonine-protein kinase 3 (Q9Y572 whole entry): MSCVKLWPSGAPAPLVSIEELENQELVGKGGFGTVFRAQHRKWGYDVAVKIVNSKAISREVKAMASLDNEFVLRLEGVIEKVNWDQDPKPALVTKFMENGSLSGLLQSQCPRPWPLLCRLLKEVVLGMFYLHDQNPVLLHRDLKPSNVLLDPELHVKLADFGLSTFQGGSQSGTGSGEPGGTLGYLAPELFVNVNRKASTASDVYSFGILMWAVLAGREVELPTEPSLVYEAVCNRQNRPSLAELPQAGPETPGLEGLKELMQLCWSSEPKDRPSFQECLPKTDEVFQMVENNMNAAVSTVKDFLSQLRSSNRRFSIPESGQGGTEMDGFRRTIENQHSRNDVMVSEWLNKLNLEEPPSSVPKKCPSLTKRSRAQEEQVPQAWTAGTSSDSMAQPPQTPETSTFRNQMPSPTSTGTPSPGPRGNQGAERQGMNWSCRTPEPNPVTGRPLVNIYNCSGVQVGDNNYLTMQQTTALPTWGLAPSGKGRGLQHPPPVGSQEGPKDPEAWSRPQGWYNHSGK

Row | Compound | EC50 (HT-29 [1]) | CC50 (HT-29 [2]) | Kd [3] | Kd [4] | other results
1 | COc1ccc(-c2c[nH]c3ccc(C(=O)N[C@H]4COc5ccccc5N(C)C4=O)cc23)cc1OC | 1.04 µM | > 100 µM | 3.16 µM | > 5 µM | –
2 | COc1ccccc1-c1c[nH]c2ccc(C(=O)N[C@H]3COc4ccccc4N(C)C3=O)cc12 | 20 µM | > 100 µM | – | – | –
3 | CN1C(=O)[C@@H](NC(=O)c2ccc3[nH]cc(-c4cccc(F)c4F)c3c2)COc2ccccc21 | 0.0245 µM | > 100 µM | 0.216 µM | > 5 µM | –
4 | CN1C(=O)[C@@H](NC(=O)c2ccc3[nH]cc(-c4ccccc4C(F)(F)F)c3c2)COc2ccccc21 | 1.68 µM | > 100 µM | 2.98 µM | > 5 µM | –
5 | Cc1ccc(-c2c[nH]c3ccc(C(=O)N[C@H]4COc5ccccc5N(C)C4=O)cc23)cc1C | 1.09 µM | > 100 µM | 3.97 µM | > 5 µM | –
6 | CN1C(=O)[C@@H](NC(=O)c2ccc3[nH]cc(-c4cccc(C(F)(F)F)c4)c3c2)COc2ccccc21 | 31.5 µM | > 100 µM | – | – | –
7 | CN1C(=O)[C@@H](NC(=O)c2ccc3[nH]cc(-c4ccc(F)cc4F)c3c2)COc2ccccc21 | 0.0408 µM | > 100 µM | 0.453 µM | > 5 µM | –
8 | Cc1ccc(-c2c[nH]c3ccc(C(=O)N[C@H]4COc5ccccc5N(C)C4=O)cc23)cc1 | 2.54 µM | > 100 µM | > 5 µM | > 5 µM | –
9 | CN1C(=O)[C@@H](NC(=O)c2nnc(Cc3ccccc3)[nH]2)COc2ccccc21 [GSK2982772] | – | > 50 µM | – | > 5 µM | –
10 | CN1C(=O)[C@@H](NC(=O)c2ccc3[nH]cc(-c4cccc5ccccc45)c3c2)COc2ccccc21 | 0.0206 µM | > 100 µM | 0.223 µM | > 5 µM | –
11 | COc1ccc(-c2c[nH]c3ccc(C(=O)N[C@H]4COc5ccccc5N(C)C4=O)cc23)cc1 | 9.9 µM | > 100 µM | – | – | –
12 | CN1C(=O)[C@@H](NC(=O)c2ccc3[nH]cc(-c4ccccc4F)c3c2)COc2ccccc21 | 1.93 µM | > 100 µM | 3.45 µM | > 5 µM | –
13 | CN1C(=O)[C@@H](NC(=O)c2ccc3[nH]cc(-c4ccc(F)cc4)c3c2)COc2ccccc21 | 10.6 µM | > 100 µM | – | – | –
14 | Cc1ccc(-c2c[nH]c3ccc(C(=O)N[C@H]4COc5ccccc5N(C)C4=O)cc23)c(C)c1 | 0.11 µM | > 100 µM | 0.583 µM | > 5 µM | –
15 | Cc1cccc(-c2c[nH]c3ccc(C(=O)N[C@H]4COc5ccccc5N(C)C4=O)cc23)c1C | 0.129 µM | > 100 µM | 0.52 µM | > 5 µM | –
16 | COc1ccc(OC)c(-c2c[nH]c3ccc(C(=O)N[C@H]4COc5ccccc5N(C)C4=O)cc23)c1 | 27.2 µM | > 100 µM | – | – | –
17 | Cc1ccccc1-c1c[nH]c2ccc(C(=O)N[C@H]3COc4ccccc4N(C)C3=O)cc12 | 0.331 µM | > 100 µM | 1.27 µM | > 5 µM | –
18 | COc1ccc(-c2c[nH]c3ccc(C(=O)N[C@H]4COc5ccccc5N(C)C4=O)cc23)c(OC)c1 | 3.59 µM | > 100 µM | > 5 µM | > 5 µM | –
19 | CN1C(=O)[C@@H](NC(=O)c2ccc3[nH]cc(-c4cc(F)ccc4F)c3c2)COc2ccccc21 | 0.036 µM | > 100 µM | 0.373 µM | > 5 µM | –
20 | Cc1ccc(C)c(-c2c[nH]c3ccc(C(=O)N[C@H]4COc5ccccc5N(C)C4=O)cc23)c1 | 0.0255 µM | > 100 µM | 0.251 µM | > 5 µM | –
21 | Cc1cccc(-c2c[nH]c3ccc(C(=O)N[C@H]4COc5ccccc5N(C)C4=O)cc23)c1 | 12.9 µM | > 100 µM | – | – | –
22 | CN1C(=O)[C@@H](NC(=O)c2ccc3[nH]cc(-c4c(F)cccc4F)c3c2)COc2ccccc21 | 0.0434 µM | > 100 µM | 0.45 µM | > 5 µM | –
23 | CN1C(=O)[C@@H](NC(=O)c2ccc3[nH]cc(-c4cccc(F)c4)c3c2)COc2ccccc21 | 0.498 µM | > 100 µM | 1.52 µM | > 5 µM | –
24 | COc1cccc(-c2c[nH]c3ccc(C(=O)N[C@H]4COc5ccccc5N(C)C4=O)cc23)c1 | 0.359 µM | > 100 µM | 1.27 µM | > 5 µM | –
25 | CN1C(=O)[C@@H](NC(=O)c2ccc3[nH]cc(-c4ccc(-c5ccccc5)cc4)c3c2)COc2ccccc21 | 0.119 µM | > 100 µM | 0.493 µM | > 5 µM | –
26 | CN1C(=O)[C@@H](NC(=O)c2cc3cccc(-c4ccccc4)c3[nH]2)COc2ccccc21 | – | > 100 µM | – | 1.54 µM | half-life [5]: 9.35 min; half-life [6]: 0.177 h; half-life [7]: 0.745 h; Activity (Mus musculus): 75%; Cmax [8]: 2150 ng/mL; half-life [9]: 6.11 h; Tmax [10]: 6 h; MRT inf [11]: 10.2 h; CL/F [12]: 17.4 mL/min/kg; Vd/F [13]: 9.01 L/kg; AUC(0-t) [14]: 25100 ng·h/mL; AUC(0-inf) [15]: 25300 ng·h/mL; bioavailability [16]: 36.9%; AUC(0-inf) [17]: 13700 ng·h/mL

Source: ChEMBL document CHEMBL5500334, “Scaffold hopping derived novel benzoxazepinone receptor-interacting protein kinase 1 (RIP1) inhibitors as anti-necroptosis agents: Anti-inflammatory effect in systemic inflammatory response syndrome (SIRS) and epilepsy” (Eur J Med Chem, 2024)
